From article PMC8286831, “Identifying SARS-CoV-2 antiviral compounds by screening for small molecule inhibitors of nsp13 helicase” (Biochemical Journal, 2021)
Read-outs that look alike come from different tables or passages of the source.

Columns and labels:
[1] = molecular target: T1, SARS-CoV-2 RdRp holoenzyme (Severe acute respiratory syndrome coronavirus 2, UniProt P0DTD1); experiment: FRET-based RdRp strand displacement assay; assay type: biochemical; conditions: RNA (RdRp substrate), 0.3 mM each NTP, 0.02% Tween-20 in RdRp assay buffer; read-out: IC50 RdRp
T1 construct: (Sf nsp12-3F/7L8 preincubated with Sf 7H8 at a 1:3 ratio); 3F (3xFlag) (C); made in house; host or cells: 'Sf', read as Spodoptera frugiperda insect cells (my inference from the prefix); details are in Bertolin et al

[2] = molecular target: T2, SARS-CoV-2 nsp13 helicase (Severe acute respiratory syndrome coronavirus 2, UniProt P0DTD1); assay type: biochemical
[3] = molecular target: T2, SARS-CoV-2 nsp13 helicase; experiment: biochemical; assay type: biochemical
SARS-CoV-2 = experiment: microbe, parasite or virus in culture; assay type: cell-based; conditions: read-out: EC50 viral inhibition

Cc1ccc(C(=O)Nc2ccc(S(=O)(=O)O)c3cc(S(=O)(=O)O)cc(S(=O)(=O)O)c23)cc1NC(=O)c1cccc(NC(=O)Nc2cccc(C(=O)Nc3cc(C(=O)Nc4ccc(S(=O)(=O)O)c5cc(S(=O)(=O)O)cc(S(=O)(=O)O)c45)ccc3C)c2)c1 [Suramin]
IC50 [1]: 500 nM
inhibition of duplex unwinding in gel-based assay [2]: clearly reduced the generation of single-stranded Cy3 strand
nsp13 inhibition and detergent sensitivity [3]: largely insensitive to detergent addition
IC50 ([3]; IC50 0.02% Tween-20 + (presence)): 1600 nM
IC50 ([3]; IC50 0.02% Tween-20 − (absence)): 740 nM
IC50 ([3]; IC50 + 0.01% Triton X-100): 1600 nM
IC50 ([3]; IC50 -Triton X-100): 1300 nM
IC50 ([3]; IC50 No detergent): 940 nM
IC50 ([3]; IC50 against nsp13 in vitro): ~1000 nM
IC50 ([3]; IC50 nsp13): 1500 nM
EC50 (SARS-CoV-2; Severe acute respiratory syndrome coronavirus 2, Vero C1008, 22 h): 9900 nM
EC50 (SARS-CoV-2): ~10000 nM
